According to patent US20120070377A1, “COMPOUNDS AND BIOLOGICAL MATERIALS AND USES THEREOF” (priority 2009, published 2012):
Entries after “also recorded” stand apart in the source; their conditions may differ. Read-outs that look alike come from different tables or passages of the source. Values belong to the compound of their own block, whether it stands above or below them.

Columns and labels:
[1] = Skin photosensitivity in a murine model; format: in vivo; conditions: laser on the skin after 1 hour, monitored over 4 days, scale of 1-4
Method: FIG. 24: Skin photosensitivity of Foscan compared to compound II. Photosensitisers were administered at t=0 hrs and a laser shone on the skin after 1 hour. The skin reaction was followed over time and the results were plotted according to the scale shown.
Skin photosensitivity is an important issue to be resolved in PDT. […] In a murine model, Foscan was administered at clinical doses (ref 109) and compared to compound 11 and a photo-immunoconjugate of compound 11. Skin photosensitivity was monitored over 4 days by observation according to a scale of 1-4 (FIG. 24).

[2] = background statement; cited from earlier work
[3] = Photophysical parameters of the photosensitisers; format: physicochemical; conditions: for φΔ, singlet oxygen quantum yield: determined vs. PPa in toluene (0.5), 10% error; for φf, fluorescence quantum yield: determined vs. PPa in toluene (φf = 0.3), 5% error
SKOV3 cells = assay: Confocal fluorescence microscopy, intracellular localisation with organelle co-stains; format: cell-based, human; conditions: for golgi localisation (co-localisation with Bodipy ceramide): FIG. 20; for mitochondrial localisation (co-localisation with Mito-tracker): FIG. 21; for lysosomal localisation (co-localisation with Lyso-tracker): FIG. 22
Method: Imaging took place at the FILM Imperial College London on a LEICA SP5 MP inverted confocal microscope, at 37° C. and under a CO2 supplemented atmosphere. The water objective (63×) was used in all the experiments. Images were processed using the Leica software, Image J and Powerpoint.
Note: in any experiment where a photosensitiser is used on cells, the experiment is done under subdued lighting exposing the cells to as little light as possible and incubating wrapped in foil. Following addition of PS to cells, cells were no longer observed on the microscope.
Cells were plated on a Labt-Tek® 8 Chambered #1.0 Borosilicate Coverglass System. With some cell lines, it is often useful to use an attachment factor (200 μl, 30 mins, 37° C.) to coat the wells first.
Photosensitiser solutions in phenol red free DMEM (10% FBS, 1% P/S, 0.5% DMSO) were prepared fresh and pre-warmed to 37° C. for 15 mins. The cells were washed with media (1×200 μl) before adding the solutions (200 μl per chamber). Unless otherwise stated, the cells were grown over 20 hrs in a humidified atmosphere (37° C., 5% CO2). The cells were washed (2×200 μl) with prewarmed phenol red free DMEM
(§1) Lysotracker® Green DND-26 was diluted according to manufacturers indications (1 mM stock) and further diluted to twice the working concentration in DMEM (10% FBS, 1% P/S). For use for single colour staining, this was diluted with DMEM (10% FBS, 1% P/S) to a final concentration of 1 μM. When it was used for two colour staining with photosensitisers, a 2 μM solution was twice diluted in photosensitiser solution to give a 1 μM final concentration.
The cells were incubated for 15 mins at 4° C. and a further 30 mins at 37° C. before replacing with fresh medium and imaging.
as §1, with “MitoTracker®” for “Lysotracker®”, “Green” for “Green DND-26”
The cells were incubated for 15 mins at 4° C. and a further 1 hr at 37° C. before replacing with fresh medium and imaging.
ER-Tracker™ Green (BODIPY® FL glibenclamide) was diluted according to manufacturer's indications (1 mM stock) and further diluted to twice the working concentration in HBSS buffer (+2% HEPES). For use for single colour staining, this was diluted with HBSS (+2% HEPES) to a final concentration of 3 μM. When it was used for two colour staining with photosensitisers, a 6 μM solution was twice diluted in photosensitiser solution to give a 3 μM final concentration.
The cells were incubated for 15 mins at 4° C. and a further 1 hr at 37° C. before replacing with fresh buffer and imaging.
Bodipy® FL C5-ceramide complexed to BSA was diluted according to manufacturer's indications (0.5 mM stock) and further diluted to twice the working concentration in HBSS buffer (+2 HEPES). For use for single colour staining, this was diluted with HBSS (+2% HEPES) to a final concentration of 5 μM. When it was used for two colour staining with photosensitisers, a 10 μM solution was twice diluted in photosensitiser solution to give a 5 μM final concentration. The cells were incubated for 15 mins at 4° C. and a further 30 mins at 37° C. before washing with cold HBSS/HEPES (3×100 μl) and replacing with either HBSS/HEPES or photosensitiser solution and incubating at 37° C. for a further 30 mins before replacing with fresh buffer and imaging.

KB = assay: In vitro phototoxicity (MTS cell titre assay after 670 nm laser light), Example 5; format: cell-based, human; conditions: free photosensitisers, 2 hrs incubation, 670 nm laser 0.5 W 10 s, MTS after 48 h
Method: (§2) Two different human-derived tumour cell lines: SKOV3 and KB were obtained from the European Collection of Cell Cultures (ECACC) and cultured in Dulbecco's modified Eagle's medium (DMEM) with 10% foetal bovine serum, penicillin and streptomycin antibiotics (1%) and passaged when 70-90% confluent in 75 cm^2 flasks. The cells were maintained at 37° C. in a humidified 5% CO2 atmosphere.
(§3) Cells were trypsinised and seeded at 2×10^3 cells/well for KB and 3×10^3 cells/well for SKOV3 into 96-well plates and incubated over two nights for KB and overnight for SKOV3 at 37° C. and 5% CO2. The cells were then washed once in phenol red free DMEM and appropriately diluted photosensitiser solution or photo-immunoconjugate (in DMEM, 2% DMSO) was added to the appropriate wells under subdued lighting. DMEM or Triton X-100 (1%) were added to control wells. After 2 hrs incubation in the dark at 37° C., 5% CO2, cells were washed three times with PBS and 100 μl of DMEM was added to each well.
(§4) Wells were exposed to light from a High Powered-Devices 670 nm laser used at 0.5 W for 10 s. Controls included wells with photosensitiser added and no exposure to light, or DMEM added and exposure to light as well as Triton X-100 (1%) with or without light exposure. Cells that had no photosensitiser added and no exposure to light were included as overall controls. Cells were incubated in the dark at 37° C., 5% CO2 for 48 h after which time, a cell titre assay was performed according to the manufacturer's instructions. The Promega Cell Titre-96 system was used which involves the conversion by live cells of a tetrazolium compound (MTS) into a formazan dye which is measurable by its absorbance at 490 nm.

SKOV3 = assay: as above; format: cell-based, human; conditions: free photosensitisers, 2 hrs incubation, 670 nm laser 0.5 W 10 s, MTS after 48 h
Method: as §2, §3, §4

[4] = Biodistribution and blood clearance of 125I-radiolabelled photosensitisers and PICs in SKOV3 tumour mice; format: in vivo, BALB/c nude mice; conditions: for blood clearance: iv, radiolabelled, 1-24 hr, SKOV3 tumour mice
Method: 0.1 mg of photosensitiser was dissolved in 0.5 ml PBS. Radiolabelled Iodine (Na^125I, ICN chemicals) was added to 0.1 ml of PBS in Iodogen-coated tubes (Pierce chemicals) and allowed to activate. The activated iodine-125 was transferred to the photosensitiser and allowed to react for 5-10 minutes at room temperature. The radiolabelled photosensitiser was separated from free iodine on a mini silica gel column eluting with 100% PBS to remove the iodinating agent followed by a gradual switch from 10% MeOH/PBS to 100% MeOH with the radiolabelled photosenstiser eluting with 10% MeOH/chloroform. The radiolabelled solutions of the photosensitiser was allowed to air-dry and re-suspended in PBS containing 2% DMSO.
(§5) Female BALB/c nude mice (aged 6-8 weeks old) were implanted with 10^7 SKOV3 tumour cells mixed in 0.1 ml of ice-cold matrigel subcutaneously and the tumours were allowed to grow for 3-6 weeks as xenografts. Mice were maintained in IVC cages (individually-vented cages) in a clean room. Samples were injected in a volume of 0.1 ml, intravenously via the lateral tail vein and the mice were maintained in low light with full food and water (irradiated). At various time points (1-24 hr), mice were culled by cardiac puncture under terminal anesthesia and blood and tissues collected. All the tissues were counted for radioactivity by gamma counting and weighed.
The results are shown as a percentage of radioactive material injected per gram of tissue.
(§6) The PS (PPa and PPa-PEG) were chemically coupled to C6 scFv, radiolabelled with iodogen as before, but dialysed against 3×5 L of PBS to remove the free iodine and injected into BALB/c nude mice with SKOV3 tumours as above. Tissues were dissected and counted as above.

[5] = Solubility in water or buffer (observations); format: physicochemical
[6] = reference value of PPa in toluene; cited from earlier work
SKOV3 tumour = assay: Tumour uptake and tumour:blood ratio of radiolabelled photosensitisers and PICs; format: in vivo, BALB/c nude mice; conditions: % of the injected dose/g of tumour tissue
Method: as §5, §6
The tumours were counted for radioactivity and expressed as % of the injected dose/g of tumour tissue (FIG. 10).
The percentage PS in the tumour was divided by the percentage in the blood (gram for gram) to give a targeting or tumour:blood ratio (the higher the better). This plotted in FIG. 11. A high tumour:blood ratio means that there is more in the tumour compared to the blood (and other tissues). This is a function of tumour uptake and blood clearance (see FIGS. 9 and 10).

skin photosensitivity [1]: significant skin sensitivity
Compound: Oc1cccc(-c2c3nc(c(-c4cccc(O)c4)c4ccc([nH]4)c(-c4cccc(O)c4)c4nc(c(-c5cccc(O)c5)c5ccc2[nH]5)CC4)C=C3)c1 [Foscan, reference compound]
skin photosensitivity (duration) [2]: about 2 weeks

Compound: CCC1=C(C)c2cc3[nH]c(c(C)c3CC)c(C#CCCCC(=O)O)c3nc(c4c5[nH]c(cc1n2)c(C)c5C(=O)C4)[C@@H](CCC(=O)OCc1cc(OCCOCCOCCOC)c(OCCOCCOCCOC)c(OCCOCCOCCOC)c1)[C@@H]3C [compound 10, Meso 5-Ethynylhexanoic acid pyropheophorbide a-3,4,5-(triethylene glycolmonomethylether) benzyl ester]
τΔ, singlet oxygen lifetime [3]: 30 μs
φΔ, singlet oxygen quantum yield [3]: 0.56
φf, fluorescence quantum yield [3]: 0.26

Compound: CCC1=C(C)c2cc3[nH]c(c(C)c3CC)c(-c3cc[n+](CCOCCOCCOC)cc3)c3nc(c4c5[nH]c(cc1n2)c(C)c5C(=O)C4)[C@@H](CCC(=O)O)[C@@H]3C [compound 31C, 3-devinyl-20-(4-triethyleneoxidepyridinium) pyropheophorbide-a chloride]
golgi localisation (co-localisation with Bodipy ceramide) (SKOV3 cells): very little yellow staining
mitochondrial localisation (co-localisation with Mito-tracker) (SKOV3 cells): very little yellow staining
lysosomal localisation (co-localisation with Lyso-tracker) (SKOV3 cells): significant yellow staining
ER localisation (co-localisation with ER-tracker) (SKOV3 cells; FIG. 23): no yellow staining
intracellular localisation (intrinsic fluorescence) (SKOV3 cells; no co-stain, FIG. 19): more punctuate staining pattern indicative of endosomal (aqueous compartment) localisation
IC50 (KB; Homo sapiens, KB): 24.7 ± 11.7 µM
IC50 (SKOV3; Homo sapiens, SK-OV-3): 260 ± 31 µM
blood clearance [4]: clears more rapidly than the PPa-PEG
τΔ, singlet oxygen lifetime [3]: 30 μs
φΔ, singlet oxygen quantum yield [3]: 0.73
φf, fluorescence quantum yield [3]: 0.15

solubility in water [5]: water soluble
Compound: Manganese(III)-5-ethynyl hexynoic acid pyropheophorbide a-3,4,5-(triethylnene glycol monomethyl ether) benzyl ester [compound 57]

solubility in water [5]: highly aqueous soluble
Compound: Meso pyropheophorbide a-3,4,5-(triethylene glycol monmethylether) 3-devinyl-3-carboxybenzyl-3,4,5-(triethylene glycol monomethylether) pyropheophorbide a [compound 38]

solubility in water [5]: readily soluble in water and methanol
Compound: N-Bis-[3-(trimethylamino)propyl]-meso 5-Bromopyropheophorbide a amide diiodide [compound 19]

Compound: Pyropheophorbide-a [PPa, reference compound]
golgi localisation (co-localisation with Bodipy ceramide) (SKOV3 cells): significant yellow staining
mitochondrial localisation (co-localisation with Mito-tracker) (SKOV3 cells): significant yellow staining
lysosomal localisation (co-localisation with Lyso-tracker) (SKOV3 cells): insignificant yellow staining
IC50 (KB): 1.2 ± 0.4 µM
IC50 (SKOV3): 14.5 ± 3.2 µM
φf, fluorescence quantum yield [6]: 0.3
φΔ, singlet oxygen quantum yield [6]: 0.5
level in tissues (biodistribution) ([4]; % of radioactive material injected per gram of tissue, over 24 hour): high levels in all major tissues
blood clearance [4]: resides in the blood for a long time; also recorded: very slow
tumour uptake (SKOV3 tumour): high
τΔ, singlet oxygen lifetime [3]: 30 μs
